Here are results for 63 molecules from patent US7034056B2, “Aryl and biaryl compounds having MCH modulatory activity” (Pharmacopeia Drug Discovery, inc., priority 2001, dated 2006).

For the experiment, the target named is T1, hMCHR (MCH receptor) (Homo sapiens, UniProt Q99705).
T1 construct: (or internally produced); host or cells: CHO (Chinese hamster ovary) cells, membrane preparation
Briefly: MCH Assay PCOP Protocol ([125I]-MCH SPA binding to hMCHR-CHO membranes).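 For Activity (Ki range): A 0.4–50 nM B 51–500 nM C 501–2500 nM.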 The method, then: A reaction mixture of 10 μg hMCHR-CHO overexpressing membranes (from Receptor Biology, Inc., Beltsville, Md., or internally produced) and 100 μg/well WGA-SPA beads (from Amersham Pharmacia Biotech, Inc., Piscataway, N.J.)/100 μl was prepared in MCHR assay buffer (25 mM HEPES, pH 7.4, 10 mM NaCl, 10 mM MgCl2, 5 mM MnCl2, 0.1% BSA). […] The assay plates were shaken for 5 minutes on a plate shaker, then incubated for 2 hours before cpm/well were determined in a Microbeta Trilux counter (from PerkinElmer Wallac, Inc., Gaithersburg, Md.).

The mark [1] stands for this setting: [125I]-MCH 0.5 nM, hMCHR-CHO membranes, read-out: Activity (ranges of Ki values).
The mark [2] stands for this setting: [125I]-MCH binding to hMCHR-CHO membranes, class symbols for ranges of Ki, read-out: Activity (Ki range).

SMILES strings stand for the structures. Where two headings read alike, the source gives them in different places.

T1 sequence (Q99705 whole entry): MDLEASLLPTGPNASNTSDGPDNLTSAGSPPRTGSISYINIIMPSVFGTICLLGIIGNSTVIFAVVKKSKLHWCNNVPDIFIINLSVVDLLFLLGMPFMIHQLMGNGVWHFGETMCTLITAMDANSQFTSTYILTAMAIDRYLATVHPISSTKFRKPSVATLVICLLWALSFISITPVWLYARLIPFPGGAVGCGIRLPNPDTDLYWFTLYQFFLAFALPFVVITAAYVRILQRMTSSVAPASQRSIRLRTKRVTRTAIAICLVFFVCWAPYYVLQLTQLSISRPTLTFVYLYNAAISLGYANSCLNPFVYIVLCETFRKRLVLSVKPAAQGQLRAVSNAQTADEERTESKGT

In general, Ki refers to the dissociation constant of the complex between target and ligand, obtained from inhibition or displacement. Turning to `Cc1ccc(C(CCNC2CCCC2)CN2CCN(c3cc(Cl)cc(Cl)c3)C2=O)cc1` (stereo not drawn) [Example 160], the Ki under setting [1] was 51 to 500 nM. Same read-out and setting: next, `Cc1ccc(-c2cccc(C(CCNC3CCCC3)CNC(=O)Nc3cc(Cl)cc(Cl)c3)c2)cc1` (stereo not drawn) [Example 161]: 501 to 2500 nM; `Cc1ccc(-c2cccc(C(CCNCCCN(C)C)CNC(=O)Nc3cc(Cl)cc(Cl)c3)c2)cc1` (stereo not drawn) [Example 162]: 501 to 2500 nM; `CN(C)CCCNCCC(CNC(=O)Nc1cc(Cl)cc(Cl)c1)c1cccc(-c2ccc3c(c2)OCO3)c1` (stereo not drawn) [Example 163]: 501 to 2500 nM. Still for that read-out and setting: for `COc1ccccc1-c1cccc(C(CCNC2CCCC2)CNC(=O)Nc2cc(Cl)cc(Cl)c2)c1` (stereo not drawn) [Example 164] the value was 501 to 2500 nM. The same measure, in the same setting: for `CN(C)CCCNCCC(CNC(=O)Nc1cc(Cl)cc(Cl)c1)c1cccc(-c2ccc(F)cc2)c1` (stereo not drawn) [Example 165] the value was 501 to 2500 nM. As for `O=C(NCC(CCNC1CCCC1)c1cccc(-c2ccccc2Cl)c1)Nc1cc(Cl)cc(Cl)c1` (stereo not drawn) [Example 166], the Ki under setting [1] fell in the range of 501 to 2500 nM. With `CN(C)CCCNCCC(CNC(=O)Nc1cc(Cl)cc(Cl)c1)c1cccc(-c2ccc(Cl)c(Cl)c2)c1` (stereo not drawn) [Example 167], the Ki under setting [1] fell in the range of 501 to 2500 nM. The same measure, in the same setting: for `CC(=O)Nc1cccc(-c2cccc(C(CCNCCCN(C)C)CNC(=O)Nc3cc(Cl)cc(Cl)c3)c2)c1` (stereo not drawn) [Example 168] the value was 501 to 2500 nM; for `CN(C)CCCNCCC(CNC(=O)Nc1cc(Cl)cc(Cl)c1)c1cccc(-c2cccc(C#N)c2)c1` (stereo not drawn) [Example 169], 501 to 2500 nM.

Regarding `CN(C)CCCNCCC(CNC(=O)Nc1cc(Cl)cc(Cl)c1)c1cccc(-c2ccc(F)c(Cl)c2)c1` (stereo not drawn) [Example 170], the Ki under setting [1] lay within 501 to 2500 nM. Consider `CN(C)CCCNCCC(CNC(=O)Nc1cc(Cl)cc(Cl)c1)c1cccc(-c2ccccc2)c1` (stereo not drawn) [Example 171], for which, under setting [1], the Ki lay within 501 to 2500 nM. Still for that read-out and setting: next, `CN(C)CCCNCCC(CNC(=O)Nc1cc(Cl)cc(Cl)c1)c1cccc(-c2cccnc2)c1` (stereo not drawn) [Example 172]: 501 to 2500 nM; `CN(C)CCCNCCC(CNC(=O)Nc1cc(Cl)cc(Cl)c1)c1cccc(-c2cccc(F)c2)c1` (stereo not drawn) [Example 173]: 501 to 2500 nM; `COc1ccccc1-c1cccc(C(CCNCCCN(C)C)CNC(=O)Nc2cc(Cl)cc(Cl)c2)c1` (stereo not drawn) [Example 174]: 501 to 2500 nM. `CN(C)CCCNCCC(CNC(=O)Nc1cc(Cl)cc(Cl)c1)c1cccc(-c2cc(C(F)(F)F)cc(C(F)(F)F)c2)c1` (stereo not drawn) [Example 175]: the Ki under setting [1] was in the range of 501 to 2500 nM.

As for `CN(C)CCCNCCC(CNC(=O)Nc1cc(Cl)cc(Cl)c1)c1cccc(-c2ccccc2Cl)c1` (stereo not drawn) [Example 176], the Ki under setting [1] was in the range of 501 to 2500 nM. Same read-out and setting: for `CCNC(=O)N1CCC(NCCC(CNC(=O)Nc2cc(Cl)cc(Cl)c2)c2ccc(Cl)cc2)C1` (stereo not drawn) [Example 177] the value was 51 to 500 nM. Still for that read-out and setting: next, `O=C(NCC(CCN1CCC(NC(=O)C2CCC2)C1)c1ccc(Cl)cc1)Nc1cc(Cl)cc(Cl)c1` (stereo not drawn) [Example 178]: 51 to 500 nM. On the same count and under the same terms, for `CS(=O)(=O)NC1CCN(CCC(CNC(=O)Nc2cc(Cl)cc(Cl)c2)c2ccc(Cl)cc2)CC1` (stereo not drawn) [Example 179] the value was 51 to 500 nM. As to `CCNC(=O)N1CCC(NCCC(CNC(=O)Nc2cc(Cl)cc(Cl)c2)c2ccc(C)cc2)C1` (stereo not drawn) [Example 180], the Ki under setting [1] is 51 to 500 nM.

Take `O=C(NCC(CCN1CCC(NC(=O)C2CCC2)C1)c1ccc(Cl)c(Cl)c1)Nc1cc(Cl)cc(Cl)c1` (stereo not drawn) [Example 181]: under setting [1], the Ki is 51 to 500 nM. In the case of `CCNC(=O)N1CCC(NCCC(CNC(=O)Nc2cc(Cl)cc(Cl)c2)c2ccc(Cl)c(Cl)c2)C1` (stereo not drawn) [Example 182], the Ki under setting [1] fell in the range of 51 to 500 nM. Take `O=C(NCC(CCN1CCC(NC(=O)c2cccs2)C1)c1ccc(Cl)cc1)Nc1cc(Cl)cc(Cl)c1` (stereo not drawn) [Example 183]: the Ki under setting [1] lay within 51 to 500 nM. The same measure, in the same setting: next, `Cc1ccc(C(CCN2CCC(NC(=O)C3CCC3)C2)CNC(=O)Nc2cc(Cl)cc(Cl)c2)cc1` (stereo not drawn) [Example 184]: 51 to 500 nM; `O=C(NCC(CCN1CCC(NC(=O)C2CCC2)CC1)c1ccc(Cl)cc1)Nc1cc(Cl)cc(Cl)c1` (stereo not drawn) [Example 185]: 51 to 500 nM.

For the molecule `CC(=O)NC1CCN(CCC(CNC(=O)Nc2cc(Cl)cc(Cl)c2)c2ccc(Cl)cc2)C1` (stereo not drawn) [Example 186], the Ki under setting [1] lay within 51 to 500 nM. The same measure, in the same setting: for `Cc1ccc(C(CCN2CCC(NC(=O)C3CCC3)CC2)CNC(=O)Nc2cc(Cl)cc(Cl)c2)cc1` (stereo not drawn) [Example 187] the value was 51 to 500 nM. Still for that read-out and setting: next, `COCC(=O)NC1CCN(CCC(CNC(=O)Nc2cc(Cl)cc(Cl)c2)c2ccc(Cl)c(Cl)c2)C1` (stereo not drawn) [Example 188]: 51 to 500 nM; `O=C(NCC(CCN1CCC(NC(=O)c2cccs2)C1)c1ccc(Cl)c(Cl)c1)Nc1cc(Cl)cc(Cl)c1` (stereo not drawn) [Example 190]: 51 to 500 nM. Still for that read-out and setting: next, `O=C(NCC(CCN1CCC(NC(=O)C2CCC2)CC1)c1ccc(Cl)c(Cl)c1)Nc1cc(Cl)cc(Cl)c1` (stereo not drawn) [Example 191]: 51 to 500 nM. Consider `COCC(=O)NC1CCN(CCC(CNC(=O)Nc2cc(Cl)cc(Cl)c2)c2ccc(Cl)cc2)CC1` (stereo not drawn) [Example 192], for which the Ki under setting [1] lay within 51 to 500 nM. The same measure, in the same setting: for `O=C(NCC(CCN1CCC(NC(=O)c2ccno2)C1)c1ccc(Cl)cc1)Nc1cc(Cl)cc(Cl)c1` (stereo not drawn) [Example 193] the value was 51 to 500 nM. Same read-out and setting: for `COCC(=O)NC1CCN(CCC(CNC(=O)Nc2cc(Cl)cc(Cl)c2)c2ccc(Cl)cc2)C1` (stereo not drawn) [Example 194] the value was 51 to 500 nM; for `COCC(=O)NC1CCN(CCC(CNC(=O)Nc2cc(Cl)cc(Cl)c2)c2ccc(Cl)c(Cl)c2)CC1` (stereo not drawn) [Example 195], 51 to 500 nM; for `CC(=O)NC1CCN(CCC(CNC(=O)Nc2cc(Cl)cc(Cl)c2)c2ccc(Cl)cc2)CC1` (stereo not drawn) [Example 196], 51 to 500 nM.

As for `COc1cscc1C(=O)NC1CCN(CCC(CNC(=O)Nc2cc(Cl)cc(Cl)c2)c2ccc(Cl)cc2)C1` (stereo not drawn) [Example 197], the Ki under setting [1] lay within 51 to 500 nM.

As to `Cc1ccc(C(CCN2CCC(NC(=O)c3cccs3)CC2)CNC(=O)Nc2cc(Cl)cc(Cl)c2)cc1` (stereo not drawn) [Example 198], the Ki under setting [1] lay within 51 to 500 nM. For the molecule `CC(=O)NC1CCN(CCC(CNC(=O)Nc2cc(Cl)cc(Cl)c2)c2ccc(Cl)c(Cl)c2)CC1` (stereo not drawn) [Example 199], the Ki under setting [1] is 51 to 500 nM. Still for that read-out and setting: next, `COc1cscc1C(=O)NC1CCN(CCC(CNC(=O)Nc2cc(Cl)cc(Cl)c2)c2ccc(Cl)c(Cl)c2)C1` (stereo not drawn) [Example 200]: 501 to 2500 nM; `COc1cscc1C(=O)NC1CCN(CCC(CNC(=O)Nc2cc(Cl)cc(Cl)c2)c2ccc(Cl)cc2)CC1` (stereo not drawn) [Example 201]: 501 to 2500 nM; `Cc1ccc(C(CCN2CCC(NC(=O)c3ccno3)C2)CNC(=O)Nc2cc(Cl)cc(Cl)c2)cc1` (stereo not drawn) [Example 202]: 501 to 2500 nM. Still for that read-out and setting: for `COc1cscc1C(=O)NC1CCN(CCC(CNC(=O)Nc2cc(Cl)cc(Cl)c2)c2ccc(C)cc2)CC1` (stereo not drawn) [Example 203] the value was 501 to 2500 nM; for `CS(=O)(=O)NC1CCN(CCC(CNC(=O)Nc2cc(Cl)cc(Cl)c2)c2ccc(Cl)cc2)C1` (stereo not drawn) [Example 204], 501 to 2500 nM. On the same count and under the same terms, next, `Cc1ccc(C(CCN2CCC(NC(=O)c3ccno3)CC2)CNC(=O)Nc2cc(Cl)cc(Cl)c2)cc1` (stereo not drawn) [Example 205]: 501 to 2500 nM. As for `CC(=O)NC1CCN(CCC(CNC(=O)Nc2cc(Cl)cc(Cl)c2)c2ccc(C)cc2)CC1` (stereo not drawn) [Example 206], under setting [1], the Ki lay within 501 to 2500 nM. Still for that read-out and setting: next, `Cc1ccc(C(CCN2CCC(NS(C)(=O)=O)C2)CNC(=O)Nc2cc(Cl)cc(Cl)c2)cc1` (stereo not drawn) [Example 207]: 501 to 2500 nM; `COCC(=O)NC1CCN(CCC(CNC(=O)Nc2cc(Cl)cc(Cl)c2)c2ccc(C)cc2)C1` (stereo not drawn) [Example 208]: 501 to 2500 nM.

Consider `O=C(NCC(CCN1CCC(NC(=O)c2ccno2)C1)c1ccc(Cl)c(Cl)c1)Nc1cc(Cl)cc(Cl)c1` (stereo not drawn) [Example 209], for which the Ki under setting [1] is 501 to 2500 nM. Same read-out and setting: for `CC(=O)NC1CCN(CCC(CNC(=O)Nc2cc(Cl)cc(Cl)c2)c2ccc(Cl)c(Cl)c2)C1` (stereo not drawn) [Example 210] the value was 501 to 2500 nM. Turning to `CS(=O)(=O)NC1CCN(CCC(CNC(=O)Nc2cc(Cl)cc(Cl)c2)c2ccc(Cl)c(Cl)c2)C1` (stereo not drawn) [Example 211], under setting [1], the Ki is 501 to 2500 nM. On the same count and under the same terms, for `O=C(NCC(CCN1CCC(NC(=O)c2cccs2)CC1)c1ccc(Cl)c(Cl)c1)Nc1cc(Cl)cc(Cl)c1` (stereo not drawn) [Example 212] the value was 501 to 2500 nM; for `COCC(=O)NC1CCN(CCC(CNC(=O)Nc2cc(Cl)cc(Cl)c2)c2ccc(C)cc2)CC1` (stereo not drawn) [Example 213], 501 to 2500 nM; for `O=C(NCC(CCN1CCC(NC(=O)c2ccno2)CC1)c1ccc(Cl)cc1)Nc1cc(Cl)cc(Cl)c1` (stereo not drawn) [Example 214], 501 to 2500 nM.

As to `CC(=O)NC1CCN(CCC(CNC(=O)Nc2cc(Cl)cc(Cl)c2)c2ccc(C)cc2)C1` (stereo not drawn) [Example 215], the Ki under setting [1] fell in the range of 501 to 2500 nM.

With `O=C(NCC(CCN1CCC(NC(=O)c2cccs2)CC1)c1ccc(Cl)cc1)Nc1cc(Cl)cc(Cl)c1` (stereo not drawn) [Example 216], the Ki under setting [1] is 501 to 2500 nM. Take `O=C(NCC(CCN1CCC(NC(=O)c2ccno2)CC1)c1ccc(Cl)c(Cl)c1)Nc1cc(Cl)cc(Cl)c1` (stereo not drawn) [Example 217]: the Ki under setting [2] lay within 501 to 2500 nM.

Take `CN(C)CCCNCCC(CNC(=O)Nc1cc(Cl)cc(Cl)c1)c1ccc(-c2cccc(C#N)c2)cc1` (stereo not drawn) [Example 218]: under setting [2], the Ki was 0.4 to 50 nM. Still for that read-out and setting: next, `CN(C)CCCNCCC(CNC(=O)Nc1cc(Cl)cc(Cl)c1)c1ccc(-c2cccc([N+](=O)[O-])c2)cc1` (stereo not drawn) [Example 220]: 0.4 to 50 nM; `CN(C)CCCNCCC(CNC(=O)Nc1cc(Cl)cc(Cl)c1)c1ccc(-c2cccc(Cl)c2)cc1` (stereo not drawn) [Example 221]: 0.4 to 50 nM; `CN(C)CCCNCCC(CNC(=O)Nc1cc(Cl)cc(Cl)c1)c1ccc(-c2ccc3c(c2)OCO3)cc1` (stereo not drawn) [Example 223]: 0.4 to 50 nM.

Regarding `CN(C)CCCNCCC(CNC(=O)Nc1cc(Cl)cc(Cl)c1)c1ccc(-c2ccc(F)c(Cl)c2)cc1` (stereo not drawn) [Example 224], the Ki under setting [2] was in the range of 0.4 to 50 nM.

With `O=C(NCC(CCNC1CCCC1)c1ccc(-c2ccc(F)c(Cl)c2)cc1)Nc1cc(Cl)cc(Cl)c1` (stereo not drawn) [Example 226], the inhibitory constant (Ki) under setting [2] is 51 to 500 nM.
